Test results as given in patent US12364702B2, “Highly active sting protein agonist compound” (ADLAI NORTYE BIOPHARMA CO., LTD., priority 2018, dated 2025).
Like-named read-outs stand apart in the source and are kept apart here.

Assays:
Type in all cases: cell-based
STING HAQ variant = biological target: T1, STING HAQ variant (Homo sapiens, UniProt Q86WV6, G230A/R293Q/R71H); assay: SEAP reporter assay in HEK-Blue ISG KO-STING cells transfected with STING HAQ variant (Method 2); design: key: ratio of compound SEAP signal to 0.5% DMSO; conditions: 0.0625 ng STING vector (HAQ variant), compound 5 uM, 24 h, SEAP signal vs 0.5% DMSO
T1 construct: host or cells: HEK-Blue ISG KO-STING cells (Invivogen, hkb-kostg)
From the text: (§1) Activation of STING can be determined using a SEAP reporter assay in HEK-Blue™ ISG KO-STING cells (Invivogen, cat #hkb-kostg) transfected with plasmids expressing STING variants (WT & HAQ) (referred to WO2017/175147A1). STING variants (WT & HAQ) vector were constructed based on STING-232H vector (Origene, RC208418). GFP vector (VT2069) was bought from Youbio. The detailed protocol as follows: HEK-Blue™ ISG KO-STING cells were harvest and seeding into 96 well plate and the final cell number was 0.8×10^5 cells/well. Transfections were prepared using Lipofectamine 2000 (Invitrogen, Cat #11668-027) following the manufacturer's instructions (Lipo2000/DNA=1/10), 20 ul of transfection suspension containing 1 ng (WT variant) or 0.0625 ng (HAQ variant) STING vector was added to cell culture plate and incubated at 37° C., 5% CO2 for 24 hours. After 24 hours incubation, compounds were added at proper concentration, the final DMSO concentration was 0.5%. After 24 h incubation, the supernatant was collected to detect SEAP signal using Great EscAPe SEAP chemiluminescence KIT (Clontech, cat #631738) and cells were collected to detect cell viability using CellTiter-Glo Luminescent Cell Viability Assay (Promega, cat #G7573) following the manufacturer's instructions. The data were described by the ratio of the stimulating signal of compounds to 0.5% DMSO.

STING = STING (Homo sapiens, UniProt Q86WV6); assay: IFN-β secretion from THP1 by STING activation (hIFNβ ELISA)
Procedure, shortened: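 THP1 cells (2×10^6 cells/ml) exposed 24 h at 37° C, 5% CO2 to 8-point, 3-fold compound dilutions, 0.2% DMSO final, top dose set by solubility. Secreted IFN-β in supernatant measured by human IFNβ ELISA; EC50 from curve fitting.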

STING WT variant = biological target: T2, STING WT variant (Homo sapiens, UniProt Q86WV6); assay: SEAP reporter assay in HEK-Blue ISG KO-STING cells transfected with STING WT variant (Method 2); design: key: ratio of compound SEAP signal to 0.5% DMSO; conditions: 1 ng STING vector (WT variant), compound 2.5 uM, 24 h, SEAP signal vs 0.5% DMSO
T2 construct: host or cells: HEK-Blue ISG KO-STING cells (Invivogen, hkb-kostg)
From the text: as §1

[1] = THP1 cells; 24 h incubation; IFN-β in supernatant; top dose set according to solubility; read-out: hIFNβ ELISA (EC50)

Chain of STING (Q86WV6 whole entry): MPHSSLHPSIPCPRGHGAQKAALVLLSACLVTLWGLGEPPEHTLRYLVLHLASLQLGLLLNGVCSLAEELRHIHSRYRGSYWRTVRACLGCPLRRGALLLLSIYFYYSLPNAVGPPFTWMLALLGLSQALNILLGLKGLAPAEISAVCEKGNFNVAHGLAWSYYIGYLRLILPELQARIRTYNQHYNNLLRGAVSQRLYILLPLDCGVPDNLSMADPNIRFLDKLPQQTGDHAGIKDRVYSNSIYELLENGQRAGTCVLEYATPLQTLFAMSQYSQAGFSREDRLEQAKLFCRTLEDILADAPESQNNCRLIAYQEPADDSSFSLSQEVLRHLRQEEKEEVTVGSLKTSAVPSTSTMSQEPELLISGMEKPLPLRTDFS
T1 sequence (Q86WV6 whole entry R71H/G230A/R293Q): as the sequence (Q86WV6 whole entry) above, with R71H, G230A, R293Q counted along it

Structure (SMILES) | Fold change related to DMSO control HAQ (STING HAQ variant) | EC50 (STING; [1]) [µM] | Fold change related to DMSO control WT (STING WT variant) | EC50 (STING; read-out: hIFNβ ELISA (EC50); THP1 cells; 24 h incubation; IFN-β in supernatant; top dose set according to solubility) [µM] | hIFNβ ELISA (EC50, μM) (STING; THP1 cells; 24 h incubation; IFN-β in supernatant; top dose set according to solubility)
CCn1nc(C)cc1C(=O)Nc1nc2cc(C(N)=O)cc(OCCCN=C(N(C)C)N(C)C)c2n1CCC[C@H]1COc2cc(C(N)=O)cc3nc(NC(=O)c4cc(C)nn4CC)n1c23 [Example 56, (S)-3-(3-(7-(3-((bis(dimethylamino)methylene)amino)propoxy)-5-carbamoyl-2-(1-ethyl-3-methyl-1H-pyrazole-5-carboxamido)-1H-benzo[d]imidazol-1-yl)propyl)-2-(1-ethyl-3-methyl-1H-pyrazole-5-carboxamido)-3,4-dihydro-5-oxa-1,2a-diazaacenaphthylene-7-carboxamide] | 10.61 | 17.3 | 6.76 | – | –
CCn1nc(C)cc1C(=O)Nc1nc2cc(C(N)=O)cc(OCCCNC(=O)CN3CCC(OC)CC3)c2n1CCC[C@H]1COc2cc(C(N)=O)cc3nc(NC(=O)c4cc(C)nn4CC)n1c23 [Example 42, (S)-3-(3-(5-carbamoyl-2-(1-ethyl-3-methyl-1H-pyrazole-5-carboxamido)-7-(3-(2-(4-methoxypiperidin-1-yl)acetamido)propoxy)-1H-benzo[d]imidazol-1-yl)propyl)-2-(1-ethyl-3-methyl-1H-pyrazole-5-carboxamido)-3,4-dihydro-5-oxa-1,2a-diazaacenaphthylene-7-carboxamide] | 17.42 | 2.2 | 10.04 | – | –
CCn1nc(C)cc1C(=O)Nc1nc2cc(C(N)=O)cc(OCCCNC(=O)CN3CCC(O)CC3)c2n1CCC[C@H]1COc2cc(C(N)=O)cc3nc(NC(=O)c4cc(C)nn4CC)n1c23 [Example 40, (S)-3-(3-(5-carbamoyl-2-(1-ethyl-3-methyl-1H-pyrazole-5-carboxamido)-7-(3-(2-(4-hydroxypiperidin-1-yl)acetamido)propoxy)-1H-benzo[d]imidazol-1-yl)propyl)-2-(1-ethyl-3-methyl-1H-pyrazole-5-carboxamido)-3,4-dihydro-5-oxa-1,2a-diazaacenaphthylene-7-carboxamide] | 13.94 | 4.7 | 7.82 | – | –
CCn1nc(C)cc1C(=O)Nc1nc2cc(C(N)=O)cc(OCCCNC(=O)CN3CCOCC3)c2n1CCC[C@H]1COc2cc(C(N)=O)cc3nc(NC(=O)c4c(Cl)c(C)nn4CC)n1c23 [Example 55, (S)-3-(3-(5-carbamoyl-2-(1-ethyl-3-methyl-1H-pyrazole-5-carboxamido)-7-(3-(2-morpholinoacetamido)propoxy)-1H-benzo[d]imidazol-1-yl)propyl)-2-(4-chloro-1-ethyl-3-methyl-1H-pyrazole-5-carboxamido)-3,4-dihydro-5-oxa-1,2a-diazaacenaphthylene-7-carboxamide] | 26.34 | 1.2 | 11.71 | – | –
CCn1nc(C)c(F)c1C(=O)Nc1nc2cc(C(N)=O)cc(OCCCOC)c2n1CCC[C@H]1COc2cc(C(N)=O)cc3nc(NC(=O)c4c(F)c(C)nn4CC)n1c23 [Example 49, (S)-3-(3-(5-carbamoyl-2-(1-ethyl-4-fluoro-3-methyl-1H-pyrazole-5-carboxamido)-7-(3-methoxypropoxy)-1H-benzo[d]imidazol-1-yl)propyl)-2-(1-ethyl-4-fluoro-3-methyl-1H-pyrazole-5-carboxamido)-3,4-dihydro-5-oxa-1,2a-diazaacenaphthylene-7-carboxamide] | 27.58 | 0.5 | 11.17 | – | –
CCn1nc(C)cc1C(=O)Nc1nc2cc(C(N)=O)cc(OCCCOC)c2n1CCC[C@H]1COc2cc(C(N)=O)cc3nc(NC(=O)c4c(F)c(C)nn4CC)n1c23 [Example 50, (S)-3-(3-(5-carbamoyl-2-(1-ethyl-3-methyl-1H-pyrazole-5-carboxamido)-7-(3-methoxypropoxy)-1H-benzo[d]imidazol-1-yl)propyl)-2-(1-ethyl-4-fluoro-3-methyl-1H-pyrazole-5-carboxamido)-3,4-dihydro-5-oxa-1,2a-diazaacenaphthylene-7-carboxamide] | 32.38 | 1.6 | 8.92 | – | –
CCn1nc(C)cc1C(=O)Nc1nc2cc(C(N)=O)cc(OCCCNC(=O)CN(C)C)c2n1CCC[C@H]1COc2cc(C(N)=O)cc3nc(NC(=O)c4c(Cl)c(C)nn4CC)n1c23 [Example 54, (S)-3-(3-(5-carbamoyl-7-(3-(2-(dimethylamino)acetamido)propoxy)-2-(1-ethyl-3-methyl-1H-pyrazole-5-carboxamido)-1H-benzo[d]imidazol-1-yl)propyl)-2-(4-chloro-1-ethyl-3-methyl-1H-pyrazole-5-carboxamido)-3,4-dihydro-5-oxa-1,2a-diazaacenaphthylene-7-carboxamide] | 19.74 | 5.2 | 13.02 | – | –
CCn1nc(C)cc1C(=O)Nc1nc2cc(C(N)=O)cc(OCCCNS(=O)(=O)CCN)c2n1CCC[C@H]1COc2cc(C(N)=O)cc3nc(NC(=O)c4cc(C)nn4CC)n1c23 [Example 44, (S)-3-(3-(7-(3-(2-aminoethylsulfonamido)propoxy)-5-carbamoyl-2-(1-ethyl-3-methyl-1H-pyrazole-5-carboxamido)-1H-benzo[d]imidazol-1-yl)propyl)-2-(1-ethyl-3-methyl-1H-pyrazole-5-carboxamido)-3,4-dihydro-5-oxa-1,2a-diazaacenaphthylene-7-carboxamide] | 31.46 | > 39.7 | 6.47 | – | –
CCn1nc(C)cc1C(=O)Nc1nc2cc(C(N)=O)cc(OCCCN)c2n1CCC[C@H]1COc2cc(C(N)=O)cc3nc(NC(=O)c4c(F)c(C)nn4CC)n1c23.Cl [Example 51, (S)-3-(3-(7-(3-aminopropoxy)-5-carbamoyl-2-(1-ethyl-3-methyl-1H-pyrazole-5-carboxamido)-1H-benzo[d]imidazol-1-yl)propyl)-2-(1-ethyl-4-fluoro-3-methyl-1H-pyrazole-5-carboxamido)-3,4-dihydro-5-oxa-1,2a-diazaacenaphthylene-7-carboxamide hydrochloride] | 11.97 | – | 9.66 | > 50 | –
CCn1nc(C)cc1C(=O)Nc1nc2cc(C#N)cc(OCCCNC(=O)CN3CCOCC3)c2n1CCC[C@H]1COc2cc(C(N)=O)cc3nc(NC(=O)c4cc(C)nn4CC)n1c23 [Example 46, (S)-3-(3-(5-cyano-2-(1-ethyl-3-methyl-1H-pyrazole-5-carboxamido)-7-(3-(2-morpholinoacetamido)propoxy)-1H-benzo[d]imidazol-1-yl)propyl)-2-(1-ethyl-3-methyl-1H-pyrazole-5-carboxamido)-3,4-dihydro-5-oxa-1,2a-diazaacenaphthylene-7-carboxamide] | 12.84 | > 6.9 | 10.68 | – | –
CCn1nc(C)cc1C(=O)Nc1nc2cc(C(N)=O)cc(OCCCNC(=O)CN3CC(COC)C3)c2n1CCC[C@H]1COc2cc(C(N)=O)cc3nc(NC(=O)c4cc(C)nn4CC)n1c23 [Example 41, (S)-3-(3-(5-Carbamoyl-2-(1-ethyl-3-methyl-1H-pyrazole-5-carboxamido)-7-(3-(2-(3-(methoxymethyl)azetidin-1-yl)acetamido)propoxy)-1H-benzo[d]imidazol-1-yl)propyl)-2-(1-ethyl-3-methyl-1H-pyrazole-5-carboxamido)-3,4-dihydro-5-oxa-1,2a-diazaacenaphthylene-7-carboxamide] | 19.38 | 8.8 | 7.15 | – | –
CCn1nc(C)cc1C(=O)Nc1nc2cc(C#N)cc(OCCCNC(=O)CN3CCOCC3)c2n1CCC[C@H]1COc2cc(C#N)cc3nc(NC(=O)c4cc(C)nn4CC)n1c23 [Example 48, (S)—N-(5-cyano-1-(3-(7-cyano-2-(1-ethyl-3-methyl-1H-pyrazole-5-carboxamido)-3,4-dihydro-5-oxa-1,2a-diazaacenaphthylen-3-yl)propyl)-7-(3-(2-morpholinoacetamido)propoxy)-1H-benzo[d]imidazol-2-yl)-1-ethyl-3-methyl-1H-pyrazole-5-carboxamide] | 7.94 | – | 5.70 | – | inactive
